# In ChEMBL document CHEMBL3046709, “Substituted aminoalcohol ester analogs of indomethacin with reduced toxic effects” (Med Chem Res, 2007):
# Structures can show the parent of a compound that is named as a salt.
# Tests used:
# [1] = test system: Mus musculus; assay: Analgesic activity in Mus musculus (mouse) assessed as inhibition of acetic acid-induced writhing at 15 mg/kg, po administered 1 hr prior to acetic acid challenge measured at 5 to 20 min relative to control; format: functional
# [2] = test system: Rattus norvegicus; assay: Ulcerogenic activity in 36 hr fasting Rattus norvegicus Sprague-Dawley (rat) stomach assessed as ulcer index at 25 mg/kg, po measured after 4 hr; format: toxicity, organism-based; parameters: dose 25 mg/kg, route oral; conditions: in vivo
# [3] = test system: Rattus norvegicus; assay: Anti-inflammatory activity in Rattus norvegicus Sprague-Dawley (rat) assessed as inhibition of carrageenan-induced paw edema at 3 mg/kg, po administered 1 hr prior to carrageenan-challenge measured after 3 hr by plethysmometric analysis relative to control; format: functional
# [4] = test system: Rattus norvegicus; assay: Anticholinergic activity in po dosed overnight fasted Rattus norvegicus (rat) ileum; format: functional; conditions: read-out: pA2 (converted)
# [5] = Half life in aqueous buffer at 1 mg/ml at pH 7.4 measured for 6 hr; format: ADME
half-life at 1 mg/ml [5] [days],Compound,inhibition in vivo at 15 mg/kg [1] [%],UI [2],inhibition in vivo at 3 mg/kg [3] [%],Kb [4] [µM]
2.75,COc1ccc2c(c1)c(CC(=O)OCCN1CCCCC1)c(C)n2C(=O)c1ccc(Cl)cc1,35,0.134,16.6,9.12
1.62,CCN(CC)CCOC(=O)Cc1c(C)n(C(=O)c2ccc(Cl)cc2)c2ccc(OC)cc12,23,0.317,34.6,32.4
4.12,COc1ccc2c(c1)c(CC(=O)OCCN1CCCC1)c(C)n2C(=O)c1ccc(Cl)cc1,37.2,0.341,37.5,12
1.42,COc1ccc2c(c1)c(CC(=O)OCCN(C)C)c(C)n2C(=O)c1ccc(Cl)cc1,39.9,0.149,46.7,6.46
2.17,COc1ccc2c(c1)c(CC(=O)OCCN1CCOCC1)c(C)n2C(=O)c1ccc(Cl)cc1,35.5,0.259,23.1,6.92
,CN1C2CCC1CC(OC(=O)C(CO)c1ccccc1)C2 (stereo not drawn) [ENDO-ATROPINE SULFATE],,,,0.00631
,COc1ccc2c(c1)c(CC(=O)O)c(C)n2C(=O)c1ccc(Cl)cc1 [INDOMETHACIN],42.1,0.547,45.4,
